Assay results taken from PMC10410440, “Preclinical PK investigation of a novel IDO1/TDO dual inhibitor—SHR9146 in mouse plasma and tissues by LC-MS/MS” (Frontiers in Oncology, 2023).
“Also recorded” adds a separate entry of the source.

Assay: Stability of SHR9146 in mouse plasma, whole blood and post-preparative samples
Format: in vitro ADME
Procedure: The plasma samples were examined under different conditions, including at room temperature for 6 h, three freeze–thaw cycles, and at −20°C and −70°C for 50 days. Post-preparative plasma samples were studied after being placed at room temperature for 24 h. […] Samples were considered to be stable if the deviations between measured concentration and the spiked values were within ±15%.

[1] = mouse plasma, after three freeze–thaw cycles, QC spiked 0.15 μg/mL, n=3
[2] = mouse plasma, after three freeze–thaw cycles, QC spiked 40 μg/mL, n=3
[3] = mouse plasma, at -70 °C for 50 days, QC spiked 0.15 μg/mL, n=3
[4] = mouse plasma, at -70 °C for 50 days, QC spiked 40 μg/mL, n=3
[5] = mouse plasma, at room temperature for 6 h, QC spiked 0.15 μg/mL, n=3
[6] = mouse plasma, at room temperature for 6 h, QC spiked 40 μg/mL, n=3
[7] = mouse plasma, at −20 °C for 50 days, QC spiked 0.15 μg/mL, n=3
[8] = mouse plasma, at −20 °C for 50 days, QC spiked 40 μg/mL, n=3
[9] = mouse whole blood samples at room temperature for 2 h, QC spiked 0.15 μg/mL, n=3
[10] = mouse whole blood samples at room temperature for 2 h, QC spiked 40 μg/mL, n=3
[11] = post-preparation plasma samples at room temperature for 24 h, QC spiked 0.15 μg/mL, n=3
[12] = post-preparation plasma samples at room temperature for 24 h, QC spiked 40 μg/mL, n=3

For `OCCn1cc(-c2ccc(N3CCC([C@H]4c5c(F)cccc5-c5cncn54)CC3)cc2)cn1` [SHR9146], the “RE” value (mouse plasma samples at room temperature for 6 h, QC levels not separated) was −11.1%, the Measured value [1] was 0.151 ± 0.002 µg/mL and the RE [1] was 1.0%. The Measured value [2] was 40.2 ± 0.33 µg/mL, the RE [2] was 0.6% and the Measured value [3] was 0.151 ± 0.004 µg/mL. For the same molecule, the RE [3] was 0.5%, the Measured value [4] was 39.5 ± 0.26 µg/mL and the RE [4] was −1.2%. It also gave a Measured value [5] of 0.133 ± 0.002 µg/mL, an RE [5] of −11.1% and a Measured value [6] of 35.6 ± 0.17 µg/mL. The RE [6] was −11.1%, the Measured value [7] was 0.148 ± 0.004 µg/mL and the RE [7] was −1.6%. It also gave a Measured value [8] of 39.5 ± 0.11 µg/mL, an RE [8] of −1.2% and a Measured value [9] of 0.145 ± 0.002 µg/mL. It also gave an RE [9] of −0.5%, a Measured value [10] of 39.4 ± 0.22 µg/mL and an RE [10] of −0.1%. For the same molecule, the Measured value [11] was 0.151 ± 0.003 µg/mL, the RE [11] was 0.8% and the Measured value [12] was 40.3 ± 0.09 µg/mL. The RE [12] was 0.8% and the stability in bio-samples (various storage conditions, stable if deviation within ±15%) was “stable in all the tested bio-samples; also recorded: stable under various storage conditions”.
